# In US12617758B2, “Quinazoline derivative having FLT3 inhibitory activity, and use thereof” (INDUSTRY-UNIVERSITY COOPERATION FOUNDATION HANYANG …, priority 2020, dated 2026):
# What was measured:
# Type in all cases: biochemical
# [1] = target: T1, FLT (ITD) (Homo sapiens, UniProt P36888); assay: FLT (ITD) enzyme activity (IC50); settings: read-out: FLT (ITD) IC50
# T1 sequence (P36888 1-993): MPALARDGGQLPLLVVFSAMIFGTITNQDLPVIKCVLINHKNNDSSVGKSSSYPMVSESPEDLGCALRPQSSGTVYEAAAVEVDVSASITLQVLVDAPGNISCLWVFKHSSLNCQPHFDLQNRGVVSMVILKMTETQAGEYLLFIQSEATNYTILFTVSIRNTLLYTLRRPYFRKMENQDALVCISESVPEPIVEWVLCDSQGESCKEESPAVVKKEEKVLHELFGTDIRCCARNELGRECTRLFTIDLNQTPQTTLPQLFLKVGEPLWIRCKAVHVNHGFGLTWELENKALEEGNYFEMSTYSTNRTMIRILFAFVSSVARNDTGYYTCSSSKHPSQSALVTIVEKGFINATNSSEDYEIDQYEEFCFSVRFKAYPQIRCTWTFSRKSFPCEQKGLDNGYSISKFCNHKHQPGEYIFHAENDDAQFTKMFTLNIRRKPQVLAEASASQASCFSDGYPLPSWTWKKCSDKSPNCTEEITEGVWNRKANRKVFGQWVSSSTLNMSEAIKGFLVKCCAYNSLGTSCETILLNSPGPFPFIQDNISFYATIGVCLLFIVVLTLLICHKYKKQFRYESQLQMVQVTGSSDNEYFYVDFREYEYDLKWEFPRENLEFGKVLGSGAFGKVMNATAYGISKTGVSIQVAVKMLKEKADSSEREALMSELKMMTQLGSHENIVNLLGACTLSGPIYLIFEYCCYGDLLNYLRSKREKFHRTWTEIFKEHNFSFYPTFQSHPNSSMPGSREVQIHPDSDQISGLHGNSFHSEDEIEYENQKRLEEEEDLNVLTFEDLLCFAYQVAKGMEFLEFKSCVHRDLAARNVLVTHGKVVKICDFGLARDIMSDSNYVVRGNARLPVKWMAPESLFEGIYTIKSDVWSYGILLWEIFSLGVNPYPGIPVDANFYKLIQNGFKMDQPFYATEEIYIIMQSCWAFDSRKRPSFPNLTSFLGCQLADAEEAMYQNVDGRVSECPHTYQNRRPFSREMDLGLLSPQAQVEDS
# Text: (§1) Experimental Example 1. Measurement of FLT3 and FLT Enzyme Activity
# (§2) Changes in FLT3 and FLT enzyme activities by treatment with the quinazoline derivatives of the following Table 1 according to the present invention were confirmed by IC50.
# [2] = target: T2, FLT3 (Homo sapiens, UniProt P36888); assay: FLT3 enzyme activity (IC50); settings: read-out: FLT3 IC50
# T2 sequence (P36888 27-993): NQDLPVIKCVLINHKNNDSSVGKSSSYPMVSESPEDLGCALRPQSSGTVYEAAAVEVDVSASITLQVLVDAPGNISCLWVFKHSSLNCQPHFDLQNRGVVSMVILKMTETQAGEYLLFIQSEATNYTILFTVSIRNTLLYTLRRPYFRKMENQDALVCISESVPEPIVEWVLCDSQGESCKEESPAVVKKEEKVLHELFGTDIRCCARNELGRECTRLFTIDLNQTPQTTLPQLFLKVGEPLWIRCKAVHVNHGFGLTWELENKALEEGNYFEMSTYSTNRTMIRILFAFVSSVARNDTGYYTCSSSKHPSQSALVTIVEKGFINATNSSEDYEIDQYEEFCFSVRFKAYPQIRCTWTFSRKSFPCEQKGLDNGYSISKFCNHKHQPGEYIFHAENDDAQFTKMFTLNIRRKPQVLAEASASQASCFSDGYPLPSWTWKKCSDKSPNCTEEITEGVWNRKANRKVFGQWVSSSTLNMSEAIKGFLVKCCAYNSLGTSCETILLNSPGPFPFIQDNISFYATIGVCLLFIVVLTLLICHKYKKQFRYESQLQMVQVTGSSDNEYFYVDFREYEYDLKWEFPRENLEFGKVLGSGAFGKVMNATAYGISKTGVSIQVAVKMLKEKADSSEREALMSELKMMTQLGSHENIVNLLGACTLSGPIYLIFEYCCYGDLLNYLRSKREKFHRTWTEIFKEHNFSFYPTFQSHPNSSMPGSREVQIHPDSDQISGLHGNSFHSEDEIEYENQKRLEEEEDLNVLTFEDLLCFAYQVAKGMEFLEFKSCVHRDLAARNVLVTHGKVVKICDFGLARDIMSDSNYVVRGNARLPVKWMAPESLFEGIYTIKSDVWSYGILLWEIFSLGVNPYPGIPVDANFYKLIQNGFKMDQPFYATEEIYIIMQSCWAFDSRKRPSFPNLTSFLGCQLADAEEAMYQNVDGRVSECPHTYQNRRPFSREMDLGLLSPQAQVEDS
# Text: as §1, §2
# [3] = target: RIPK3 (Homo sapiens, UniProt Q9Y572); assay: Kinase panel screening; settings: read-out: IC50 (nM), data of GW5074, control GW5074 instead of staurosporine
# Method: Next, kinase panel screening for Compound 7d was investigated for 36 different kinases at a single dose of 10 μM (FIG. 1 and Table 3).
# [4] = target: ERK1 (Homo sapiens, UniProt P27361); assay: Kinase panel screening; settings: control SCH772984 instead of staurosporine
# Sequence of ERK1 (P27361 whole entry, species assumed): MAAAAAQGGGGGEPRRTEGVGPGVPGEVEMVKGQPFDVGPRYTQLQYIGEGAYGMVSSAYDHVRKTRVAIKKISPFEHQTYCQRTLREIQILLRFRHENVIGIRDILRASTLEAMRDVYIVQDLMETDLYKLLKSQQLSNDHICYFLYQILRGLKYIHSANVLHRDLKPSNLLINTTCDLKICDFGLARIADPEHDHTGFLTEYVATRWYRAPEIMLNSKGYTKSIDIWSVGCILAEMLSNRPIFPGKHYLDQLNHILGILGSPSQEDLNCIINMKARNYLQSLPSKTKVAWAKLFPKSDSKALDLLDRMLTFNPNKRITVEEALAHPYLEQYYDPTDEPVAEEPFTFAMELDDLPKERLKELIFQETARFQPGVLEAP
# Sequence of RIPK3 (Q9Y572 whole entry, species assumed): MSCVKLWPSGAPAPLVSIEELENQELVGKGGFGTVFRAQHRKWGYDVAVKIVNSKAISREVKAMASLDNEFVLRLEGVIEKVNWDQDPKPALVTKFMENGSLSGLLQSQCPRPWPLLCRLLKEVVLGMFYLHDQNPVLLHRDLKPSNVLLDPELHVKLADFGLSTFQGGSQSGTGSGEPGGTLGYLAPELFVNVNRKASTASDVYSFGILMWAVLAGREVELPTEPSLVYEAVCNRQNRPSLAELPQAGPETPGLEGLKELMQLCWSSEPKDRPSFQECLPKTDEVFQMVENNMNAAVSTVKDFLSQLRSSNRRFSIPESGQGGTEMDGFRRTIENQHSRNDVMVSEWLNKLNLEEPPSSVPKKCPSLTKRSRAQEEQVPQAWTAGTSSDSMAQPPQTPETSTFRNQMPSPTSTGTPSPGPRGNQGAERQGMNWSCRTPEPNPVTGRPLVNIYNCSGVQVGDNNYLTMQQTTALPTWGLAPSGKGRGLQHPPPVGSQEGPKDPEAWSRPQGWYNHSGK
compound,measurement,setting,value
"Cc1oncc1C(=O)Nc1ccc2cnc(-c3cc(N4CCOCC4)cc(C(F)(F)F)c3)nc2c1 [Compound 7b, 5-methyl-N-(2-(3-morpholino-5-(trifluoromethyl)phenyl)quinzolin-7-yl)isoxazole-4-carboxamide]",IC50,[1],3 to 10 µM
same,IC50,[2],3 to 10 µM
"Cc1oncc1C(=O)Nc1ccc2cnc(-c3ccc(N4CCOCC4)c(C(F)(F)F)c3)nc2c1 [Compound 7a, 5-methyl-N-(2-(4-morpholino-5-(trifluoromethyl)phenyl)quinazolin-7-yl)isoxazole-4-carboxamide]",IC50,[1],> 10 µM
same,IC50,[2],> 10 µM
"Cc1oncc1C(=O)Nc1ccc2cnc(-c3ccc4ccccc4c3)nc2c1 [Compound 7u, 5-methyl-N-(2-(naphthalen-2-yl)quinazolin-7-yl)isoxazole-4-carboxamide]",IC50,[1],> 10 µM
same,IC50,[2],> 10 µM
"Cc1oncc1C(=O)Nc1ccc2cnc(-c3cc(OC4CCN(C)CC4)cc(C(F)(F)F)c3)nc2c1 [Compound 7n, 5-methyl-N-(2-(3-((1-methylpiperidin-4-yl)oxy)-5-(trifluoromethyl)phenyl)quinazolin-7-yl)isoxazole-4-carboxamide]",IC50,[1],3 to 10 µM
same,IC50,[2],3 to 10 µM
"Cc1oncc1C(=O)Nc1ccc2cnc(-c3ccc(Cl)c(C(F)(F)F)c3)nc2c1 [Compound 7g, N-(2-(4-chloro-3-(trifluoromethyl)phenyl)quinazolin-7-yl)-5-methylisoxazole-4-carboxamide]",IC50,[1],> 10 µM
same,IC50,[2],> 10 µM
"Cc1oncc1C(=O)Nc1ccc2cnc(-c3cc(C(C)(C)C)on3)nc2c1 [Compound 7l, N-(2-(5-(tert-butyl)isoxazol-3-yl)quinazolin-7-yl)-5-methylisoxazole-4-carboxamide]",IC50,[1],> 10 µM
same,IC50,[2],> 10 µM
"Cc1oncc1C(=O)Nc1ccc2cnc(-c3ccncc3)nc2c1 [Compound 7p, 5-methyl-N-(2-(pyridin-4-yl)quinazolin-7-yl)isoxazole-4-carboxamide]",IC50,[1],> 10 µM
same,IC50,[2],> 10 µM
"CCN1CCN(Cc2cc(-c3ncc4ccc(NC(=O)c5cnoc5C)cc4n3)cc(C(F)(F)F)c2)CC1 [Compound 7e, N-(2-(3-((4-ethylpiperazin-1-yl)methyl)-5-(trifluoromethyl)phenyl)quinazolin-7-yl)-5-methylisoxazole-4-carboxamide]",IC50,[1],3 to 10 µM
same,IC50,[2],< 3 µM
"Cc1oncc1C(=O)Nc1ccc2cnc(-c3ccc4c(c3)CCO4)nc2c1 [Compound 7v, N-(2-(2,3-dihydrobenzofuran-5-yl)quinazolin-7-yl)-5-methylisoxazole-4-carboxamide]",IC50,[1],> 10 µM
same,IC50,[2],> 10 µM
"Cc1oncc1C(=O)Nc1ccc2cnc(-c3ccccn3)nc2c1 [Compound 7q, 5-methyl-N-(2-(pyridin-2-yl)quinazolin-7-yl)isoxazole-4-carboxamide]",IC50,[1],> 10 µM
same,IC50,[2],> 10 µM
"Cc1oncc1C(=O)Nc1ccc2cnc(Cc3ccccc3C(F)(F)F)nc2c1 [Compound 7t, 5-methyl-N-(2-(2-(trifluoromethyl)benzyl)quinazolin-7-yl)isoxazole-4-carboxamide]",IC50,[1],> 10 µM
same,IC50,[2],> 10 µM
"COc1ccc(/C=C/c2ncc3ccc(NC(=O)c4cnoc4C)cc3n2)cc1 [Compound 7j, (E)-N-(2-(4-methoxystyryl)quinazolin-7-yl)-5-methylisoxazole-4-carboxamide]",IC50,[1],> 10 µM
same,IC50,[2],3 to 10 µM
"COc1ccc(CCc2ncc3ccc(NC(=O)c4cnoc4C)cc3n2)cc1 [Compound 7w, N-(2-(4-methoxyphenethyl)quinazolin-7-yl)-5-methylisoxazole-4-carboxamide]",IC50,[1],> 10 µM
same,IC50,[2],> 10 µM
"Cc1oncc1C(=O)Nc1ccc2cnc(-c3ccc(Cl)c(Cl)c3)nc2c1 [Compound 7r, N-(2-(3,4-dichlorophenyl)quinazolin-7-yl)-5-methylisoxazole-4-carboxamide]",IC50,[1],> 10 µM
same,IC50,[2],> 10 µM
"Cc1oncc1C(=O)Nc1ccc2cnc(-c3cnn(-c4ccccc4)c3C(F)(F)F)nc2c1 [Compound 7h, 5-methyl-N-(2-(1-phenyl-5-(trifluoromethyl)-1H-pyrazol-4-yl)quinazolin-7-yl)isoxazole-4-carboxamide]",IC50,[1],> 10 µM
same,IC50,[2],> 10 µM
"CC(=O)N1CCC(c2ncc3ccc(NC(=O)c4cnoc4C)cc3n2)CC1 [Compound 7o, N-(2-(1-acetylpiperidin-4-yl)quinazolin-7-yl)-5-methylisoxazole-4-carboxamide]",IC50,[1],> 10 µM
same,IC50,[2],> 10 µM
"Cc1oncc1C(=O)Nc1ccc2cnc(-c3cccc(Cl)c3)nc2c1 [Compound 7i, N-(2-(3-chlorophenyl)quinazolin-7-yl)-5-methylisoxazole-4-carboxamide]",IC50,[1],> 10 µM
same,IC50,[2],> 10 µM
"Cc1cn(-c2cc(-c3ncc4ccc(NC(=O)c5cnoc5C)cc4n3)cc(C(F)(F)F)c2)cn1 [Compound 7c, 5-methyl-N-(2-(3-(4-methyl-1H-imidazol-1-yl)-5-(trifluoromethyl)phenyl)quinazolin-7-yl)isoxazole-4-carboxamide]",IC50,[1],< 3 µM
same,IC50,[2],< 3 µM
"Cc1oncc1C(=O)Nc1ccc2cnc(/C=C/c3ccc(Cl)cc3)nc2c1 [Compound 7k, (E)-N-(2-(4-chlorostyryl)quinazolin-7-yl)-5-methylisoxazole-4-carboxamide]",IC50,[1],> 10 µM
same,IC50,[2],> 10 µM
"Cc1oncc1C(=O)Nc1ccc2cnc(-c3cc(F)cc(C(F)(F)F)c3)nc2c1 [Compound 7f, N-(2-(3-fluoro-5-(trifluoromethyl)phenyl)quinazolin-7-yl)-5-methylisoxazole-4-carboxamide]",IC50,[1],> 10 µM
same,IC50,[2],> 10 µM
"O=C1Nc2ccc(I)cc2/C1=C/c1cc(Br)c(O)c(Br)c1 [GW5074, reference compound]",IC50,[3],1650 nM
"O=C(Nc1ccc2[nH]nc(-c3ccncc3)c2c1)[C@@H]1CCN(CC(=O)N2CCN(c3ccc(-c4ncccn4)cc3)CC2)C1 [SCH772984, reference compound]",IC50,[4],4.47 nM
"Cc1oncc1C(=O)Nc1ccc2cnc(Cc3ccc(F)cc3)nc2c1 [Compound 7s, N-(2-(4-fluorobenzyl)quinazolin-7-yl)-5-methylisoxazole-4-carboxamide]",IC50,[1],> 10 µM
same,IC50,[2],> 10 µM
